By EC50 is commonly meant the midpoint of the concentration-response curve. A higher EC50 goes with a need for much substance.

The assay has as its target MT1 melatonin receptor (Oryctolagus cuniculus, UniProt G1U149). It is filed as cell-based.

MT1 melatonin receptor, sequence (G1U149 1-312): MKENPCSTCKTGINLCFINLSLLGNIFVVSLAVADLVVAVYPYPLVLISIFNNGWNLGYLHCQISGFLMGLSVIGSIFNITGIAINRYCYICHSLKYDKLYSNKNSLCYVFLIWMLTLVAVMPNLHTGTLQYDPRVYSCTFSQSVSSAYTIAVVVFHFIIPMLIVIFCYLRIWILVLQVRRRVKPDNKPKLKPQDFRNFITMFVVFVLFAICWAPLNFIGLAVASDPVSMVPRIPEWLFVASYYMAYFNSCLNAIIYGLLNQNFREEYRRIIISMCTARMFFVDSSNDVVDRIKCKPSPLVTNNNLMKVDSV

`COc1ccc2[nH]cc(CCNC(C)=O)c2c1` [Melatonin] had an EC50 of 4 ± 1 nM.

For the origin of these results see article PMC3748964 (Regulatory peptides, 2013).
